According to US20260373127A1, “USE OF DIHYDROBERBERINE OR ITS DERIVATIVES FOR REGULATING GLP-1” (NANJING NUTRABUILDING BIO-TECH CO., LTD., priority 2024, published 2026):

Tests used:
GLP-1 [1] = assay: GLP-1 in another 14-week mice experiment; type: in vivo; conditions: 35 mg/kg, at week 14
[2] = Insulin intraperitoneal tolerance test (IPTT); type: in vivo, mice
Procedure: (§1) At the beginning of the experiment, the mice were divided randomly into control mice (Group 1, n=8), HFD group (Group 2, n=8), HFD+DHB group (Group 3, n=8) and NC+DHB group (Group 4, n=8). The dosage of DHB supplementation is 1.5 mg/kg. The group 1 is the control group and is given the normal chow; the group 2 is the high-fat mouse and continue high fat diet for 8 weeks; the group 3 also continued to eat a high-fat diet and received daily intragastric administration of sample for 8 weeks; the group 4 is given the normal chow and received daily intragastric administration of sample for 8 weeks. Record the body fat and weight of each group of mice every week. Complete Oral glucose tolerance test (OGTT)/Insulin intraperitoneal tolerance test (IPTT) on the last day of week 8, then execute the mice and take serum −80 °C for storage.
(§2) Measurement of Blood Glucose: Oral glucose tolerance test (OGTT): At week 16th of the experiment, after fasting for 15 h, Glucose was given […] (2 g/kg), and blood Glucose was measured at 0, 15, 30, 60, 90, 120 mins. Insulin intraperitoneal tolerance test (IPTT): At week 16th of the experiment, after fasting for 15h, insulin (1U/kg) was injected intraperitoneally and blood glucose was measured at 0, 15, 30, 60, 90, 120 mins.

[3] = Acute intervention study on appetite measures in human; type: in vivo; conditions: single 200 mg dose
[4] = Change of body weight, 8-week mouse study; type: in vivo, mice; conditions: for body weight: DHB 1.5 mg/kg daily intragastric
Procedure: as §1
Change of body weight: Weigh once a week at a fixed time from beginning of the experiment.

Weight of the fat pad = type: in vivo, mice; conditions: 1.5 mg/kg; result in words
Procedure: as §1
Weight of the fat pad: At the 17th week, the mice were sacrificed, and the fat pads (subcutaneous, epididymis and perirenal) were dissected, photographed and weighed.

[5] = Body weight in another 14-week mice experiment; type: in vivo; conditions: 35 mg/kg
insulin (INS) = assay: Serum insulin (INS) by ELISA; type: in vivo, mice; conditions: 1.5 mg/kg; result in words
Procedure: as §1
(§3) Serum detection by ELISA: At week 8th of the experiment, the whole blood is extracted by removing the eyeball. The serum was acquired after centrifugation (10000 rpm 15 mins), stored at −80 °C for later use. Determinate the concentration of insulin (INS), cholesterol (TC), triglycerides (TG), LDL (low density lipoprotein), HDL (high density lipoprotein), GLP-1 in serum by ELISA kits.

[6] = Serum lipids (TC, TG, LDL, HDL) by ELISA; type: in vivo, mice
Procedure: as §1, §3

GLP-1 [7] = assay: Serum GLP-1 by ELISA; type: in vivo, mice; conditions: 1.5 mg/kg; result in words
Procedure: as §1, §3

[8] = Body composition analysis (fat content), 8-week mouse study; type: in vivo, mice; conditions: 1.5 mg/kg daily intragastric, 8 weeks
Procedure: as §1
Body composition analysis: During the experiment, the fat mass and lean mass was measured by Nuclear Magnetic Resonance Body Composition Analyzer once a week.

[9] = Fasting blood glucose in another 14-week mice experiment; type: in vivo; conditions: 35 mg/kg, at week 13
[10] = Oral glucose tolerance test (OGTT); type: in vivo, mice
Procedure: as §1, §2

[11] = HFD+DHB group, 1.5 mg/kg daily intragastric, 8 weeks
[12] = NC+DHB group, 1.5 mg/kg daily intragastric, 8 weeks

For `COc1ccc2c(c1OC)CN1CCc3cc4c(cc3C1=C2)OCO4` [DHB, dihydroberberine], the “increase of GLP-1 compared with untreated control group (HFD)” value (GLP-1 [1]) was 165%, the “insulin tolerance relative to mice without DHB supplementation” value ([2]; 1.5 mg/kg, result in words) was “improve the blood glucose and insulin tolerance” and the “decrease of AUC of IPTT compared with HFD group” value ([2]; HFD+DHB group (Group 3), 1.5 mg/kg daily intragastric, insulin 1U/kg i.p., 0-120 mins) was “about 27%”. The “decrease of AUC of IPTT compared with control mice” value ([2]; NC+DHB group (Group 4), 1.5 mg/kg daily intragastric, insulin 1U/kg i.p., 0-120 mins) was “approximately 21%”, the subjective appetite [3] was “decreases subjective appetite” and the composite appetite score ([3]; vs placebo) was “beat placebo”. The desire to eat ([3]; vs placebo) was “beat placebo”, the fullness ([3]; vs placebo) was “beat placebo” and the hunger ([3]; vs placebo) was “beat placebo”. For the same compound, the prospective food consumption ([3]; vs placebo) was “beat placebo”, the body weight curve ([4]; DHB groups, 1.5 mg/kg, 8 weeks, result in words) was “helpful in inhibiting high fat induced obesity” and the “decrease of body weight compared with HFD group” value [4, 11] was 9.84%. For the same compound, the body weight ([4]; HFD+DHB group, 8 weeks, HFD group 37 g) was 33.36 g, the “decrease of body weight compared with NC group” value ([4]; NC+DHB group, 1.5 mg/kg daily intragastric, at the 8th week) was 7.75% and the body weight ([4]; NC+DHB group, 8 weeks, NC group 33.96 g) was 31.33 g. The “pararenal fat pad weight relative to mice without DHB supplementation” value (Weight of the fat pad) was “significantly increase”, the benefits over time ([5]; 14-week mice experiment, result in words) was “Benefits intensified over time rather than plateauing” and the “weight loss compared with untreated control group (HFD group)” value ([5]; by week 7) was “about 15%”. For the same compound, the “weight loss compared with untreated control group (HFD group)” value ([5]; by week 13) was “about 33%”, the “serum INS relative to mice without DHB supplementation” value (insulin (INS)) was “decrease” and the “serum HDL relative to mice without DHB supplementation” value ([6]; 1.5 mg/kg, result in words) was “significantly increase”. The “serum LDL relative to mice without DHB supplementation” value ([6]; 1.5 mg/kg, result in words) was “decrease”, the “serum TC relative to mice without DHB supplementation” value ([6]; 1.5 mg/kg, result in words) was “decrease” and the “serum TG relative to mice without DHB supplementation” value ([6]; 1.5 mg/kg, result in words) was “decrease”. The “decrease of LDL compared with HFD group” value [6, 11] was 32.3%, the “increase in serum HDL compared with HFD group” value [6, 11] was 19% and the “increase of ratio of HDL/LDL compared with HFD group” value [6, 11] was 76%. For the same compound, the “reduction in serum TG compared with HFD group” value [6, 11] was 26.1%, the “reduction of blood TC compared with HFD group” value [6, 11] was 20.6% and the “decrease of LDL compared with NC group” value [6, 12] was 18.3%. For the same compound, the “increase in serum HDL compared with NC group” value [6, 12] was 8.8%, the “increase of ratio of HDL/LDL compared with NC group” value [6, 12] was 33% and the “reduction in serum TG compared with NC group” value [6, 12] was 13.2%. For the same compound, the “reduction of blood TC compared with NC group” value [6, 12] was 9.8%, the “serum GLP-1 relative to mice without DHB supplementation” value (GLP-1 [7]) was “significantly increase” and the “decrease of fat content compared with HFD group” value ([8]; HFD+DHB group (Group 3)) was “approximately 19%”. The “decrease of fat content compared with control mice” value ([8]; NC+DHB group (Group 4)) was ~35%, the “decrease of fasting blood glucose compared with untreated control group (HFD group)” value [9] was “about 16%” and the “blood glucose tolerance relative to mice without DHB supplementation” value ([10]; 1.5 mg/kg, result in words) was “improve the blood glucose and insulin tolerance”. The “decrease of AUC of OGTT compared with HFD group” value ([10]; HFD+DHB group (Group 3), 1.5 mg/kg daily intragastric, glucose 2 g/kg, 0-120 mins) was “approximately 19%” and the “decrease of AUC of OGTT compared with control mice” value ([10]; NC+DHB group (Group 4), 1.5 mg/kg daily intragastric, glucose 2 g/kg, 0-120 mins) was “approximately 10%”.
